# Test results from EP1137632B1, “THIOUREA INHIBITORS OF HERPES VIRUSES” (Wyeth, priority 1998, dated 2000).
# Like-named read-outs stand apart in the source and are kept apart here.
# How the values were obtained:
# [1] = test system: HCMV recombinant mutant virus; experiment: microbe, parasite or virus in culture; type: cell-based, human cytomegalovirus; details: Human betaherpesvirus 5, read-out: IC50 (ug/ml) HCMV
# Source text: Microtiter plate assay. Ninety-six well plate cultures of human foreskin fibroblasts are infected in the presence of inhibitor compound with a HCMV recombinant mutant virus whose genome contains the prokaryotic beta-glucuronidase gene (Jefferson, R. A., S. M. Burgess, and D. Hirsh. 1986. Beta-glucuronidase from Escherichia coli as a gene fusion marker. Proc. Natl. Acad. Sci. USA 83:8447-8451) whose expression is controlled by a viral promoter. An example of such a virus is RV145 (Jones, T. R., V. P. Muzithras, and Y. Gluzman. 1991. Replacement mutagenesis of the human cytomegalovirus genome: US10 and US11 gene products are nonessential. J. Virol. 65:5860-5872). Since it is under the control of a viral promoter, beta-glucuronidase expression is an indirect indicator of growth and replication of HCMV in this assay. At 96 hours post-infection, the infected cell lysates are prepared (using 50mM sodium phosphate [pH7.0] containing 0.1 % Triton X-100 and 0.1% sarkosyl) and assayed for beta-glucuronidase activity using a substrate for the enzyme which when cleaved yields either a product which can be measured colorimetrically in a spectrophotometer or fluorescently in a microfluorimeter. Examples of such substrates are p-nitrophenyl-beta-D-glucuronide and methylumbelliferylglucuronide, respectively. The presence of an antiviral compound is indicated by the reduced expression of the HCMV genome resident beta-glucuronidase gene, compared to the absence of inhibitor. […] Data from this assay generated using varying amounts of inhibitor compound is also used to estimate the IC50 of an inhibitor compound.
# HSV-1 = experiment: HSV antiviral (ELISA) assay in Vero cells; type: cell-based, herpes simplex virus type 1; details: read-out: IC50 (ug/ml) HSV
# Method: HSV antiviral (ELISA) assay
# Vero cells (ATCC #CCL-81) are plated on 96-well tissue culture plates at 3.5x10^4 cells per 100µl tissue culture DMEM (Dulbecco's modified Eagle media) supplemented with 2% fetal bovine serum (FBS) in each well. After overnight incubation @ 37°C (in 5% CO2) and 30 minutes prior to infection with HSV-1 (multiplicity of infection equal to 0.006), cells are either untreated, or treated with test compound (multiple concentrations) or reference standard drug control. After approximately 24 hours post-infection incubation @ 37°C (in 5% CO2), cells are fixed for ELISA assay. The primary antibody is murine anti-HSV glycoprotein D monoclonal primary antibody and the secondary antibody is goat anti-mouse IgG linked to β-galactosidase. Thus the extent of viral replication is determined by assessing β-galactosidase activity by quantifying the generation of the 4-methyl umbelliferone fluorescent cleavage product after addition of the methyl umbelliferyl-β-D-galactoside (Sigma #M1633) substrate on a microfluorimeter (365nm for excitation and 450nm for emission). Antiviral activity (IC50) of the test compound is determined by comparing the flourescence obtained in absence of compound to that obtained in the presence of compound.
# VZV strain Ellen = experiment: VZV antiviral (ELISA) assay in human foreskin fibroblast cells; type: cell-based, varicella-zoster virus
# Method: VZV antiviral (ELISA) assay
# For the generation of stock VZV to be used in the assay, VZV strain Ellen (ATCC #VR-1367) is used to infect human foreskin fibroblast (HFF) cells at low multiplicity (less than 0.1) and incubated overnight at 37°C in 5% CO2. After the overnight incubation, the mixture of uninfected and VZV-infected HFF infected cells are then harvested and added to each well of 96-well plates (3.5x10^4 cells in 100 µl DMEM supplemented with 2% FBS) which contain test compound or the reference standard drug control (in 100µl DMEM supplemented with 2% FBS per well). These cells are incubated for three days at 37°C in 5% CO2, then fixed for ELISA assay. The primary antibody is murine anti-VZV glycoprotein II monoclonal antibody (Applied Biosystems, Inc. #13-145-100) and the secondary antibody is goat anti-mouse IgG linked to β-galactosidase. Thus the extent of viral replication is determined by assessing β-galactosidase activity by quantifying the generation of the 4-methyl umbelliferone fluorescent cleavage product after addition of the methyl umbelliferyl-β-D-galactoside (Sigma #M1633) substrate on a microfluorimeter (365nm for excitation and 450nm for emission). Antiviral activity (IC50) of the test compound is determined by comparing the flourescence obtained in absence of compound to that obtained in the presence of compound.
# [2] = Human alphaherpesvirus 1, HSV-1 in Vero cells
# [3] = Human alphaherpesvirus 3, Fibroblast; read-out: % inhibition 10 ug/ml VZV
# [4] = Human alphaherpesvirus 3; VZV strain Ellen in HFF cells; read-out: IC50 (ug/ml) VZV
# [5] = Human alphaherpesvirus 3, Fibroblast, read-out: % inhibition 10 ug/ml VZV
# [6] = Human alphaherpesvirus 3, HFF, read-out: IC50 (ug/ml) VZV
SMILES,IC50 [1],IC50 (HSV-1; [2]),inhibition at 10 µg/mL (VZV strain Ellen; [3]),IC50 (VZV strain Ellen; [4]),"IC50 (HSV-1; Human alphaherpesvirus 1, Vero)",inhibition at 10 µg/mL (VZV strain Ellen; [5]),IC50 (VZV strain Ellen; [6])
"CC(=O)Nc1ccc(NC(=S)Nc2ccc(NC(=O)c3ccc4ccccc4c3O)c(Cl)c2)cc1 [Example 204, 1-Hydroxy-naphthalene-2-carboxylic acid {4-[3-(4-acetylamino-phenyl)-thioureido]-2-chloro-phenyl}-amide]",8 µg/mL,4 µg/mL,41%,> 10 µg/mL,,,
"COc1cc(OC)c(NC(=S)Nc2cc(OC)c(NC(=O)c3ccccc3F)cc2OC)cc1Cl [Example 260, N-{4-[3-(5-Chloro-2,4-dimethoxy-phenyl)-thioureido]-2,5-dimethoxy-phenyl}-2-fluoro-benzamide]",> 10 µg/mL,,,,> 10 µg/mL,18%,7 µg/mL
"COc1cc(OC)c(NC(=S)Nc2ccc(NC(=O)c3ccccc3F)c(C#N)c2)cc1Cl [Example 277, N-{4-[3-(5-Chloro-2,4-dimethoxy-phenyl)-thioureido]-2-cyano-phenyl}-2-fluoro-benzamide]",> 10 µg/mL,> 10 µg/mL,0%,> 10 µg/mL,,,
"COc1cc(OC)c(NC(=S)Nc2cc(OC)c(NC(=O)c3ccccc3F)cc2C)cc1Cl [Example 286, N-{4-[3-(5-Chloro-2,4-dimethoxy-phenyl)-thioureido]-2-methoxy-5-methyl-phenyl}-2-fluoro-benzamide]",40 µg/mL,2 µg/mL,5%,> 10 µg/mL,,,
"COc1cc(OC)c(NC(=S)Nc2ccc(NC(=O)c3ccccc3F)cc2C)cc1Cl [Example 295, N-{4-[3-(5-Chloro-2,4-dimethoxy-phenyl)-thioureido]-3-methyl-phenyl}-2-fluoro-benzamide]",> 10 µg/mL,0.15 µg/mL,20%,> 10 µg/mL,,,
"COc1cc(OC)c(NC(=S)Nc2ccc(NC(=O)c3ccccc3F)c(C(=O)Nc3ccccc3)c2)cc1Cl [Example 301, 5-[[[(5-Chloro-2,4-dimethoxyphenyl)amino]thioxomethyl]amino]-2-[(2-fluorobenzoyl)amino]-N-phenyl-benzamide]",> 10 µg/mL,10 µg/mL,10%,> 10 µg/mL,,,
"COc1cc(OC)c(NC(=S)Nc2ccc(NC(=O)c3ccccc3F)c(OC)c2)cc1Cl [Example 303, N-{4-[3-(5-Chloro-2,4-dimethoxy-phenyl)-thioureido]-2-methoxy-phenyl}-2-fluoro-benzamide]",> 10 µg/mL,> 10 µg/mL,15%,> 10 µg/mL,,,
"COc1cc(OC)c(NC(=S)Nc2ccc(NC(=O)c3ccccc3F)c(C)c2)cc1Cl [Example 310, N-{4-[3-(5-Chloro-2,4-dimethoxy-phenyl)-thioureido]-2-methyl-phenyl}-2-fluoro-benzamide]",> 10 µg/mL,2 µg/mL,40%,> 10 µg/mL,,,
"COc1cc(OC)c(NC(=S)Nc2ccc(NC(=O)c3ccccc3F)c3ccccc23)cc1Cl [Example 325, N-{4-[3-(5-Chloro-2,4-dimethoxy-phenyl)-thioureido]-naphthalen-1-yl}-2-fluoro-benzamide]",> 10 µg/mL,1 µg/mL,33%,> 10 µg/mL,,,
"COc1cc(OC)c(NC(=S)Nc2cc(C)c(NC(=O)c3ccccc3F)cc2Cl)cc1Cl [Example 327, N-{5-Chloro-4-[3-(5-chloro-2,4-dimethoxy-phenyl)-thioureido]-2-methyl-phenyl}-2-fluoro-benzamide]",> 10 µg/mL,> 10 µg/mL,42%,> 10 µg/mL,,,
"COc1cc(OC)c(NC(=S)Nc2ccc(NC(=O)c3ccccc3F)c(C(=O)O)c2)cc1Cl [Example 338, 5-[3-(5-Chloro-2,4-dimethoxy-phenyl)-thioureido]-2-(2-fluoro-benzoylamino)-benzoic acid]",35 µg/mL,,,,> 50 µg/mL,13%,> 10 µg/mL
"COc1cc(OC)c(NC(=S)Nc2ccc(NC(=O)c3c(F)cccc3F)cc2C)cc1Cl [Example 347, N-{4-[3-(5-Chloro-2,4-dimethoxy-phenyl)-thioureido]-3-methyl-phenyl}-2,6-difluoro-benzamide]",10 µg/mL,0.06 µg/mL,34%,> 10 µg/mL,,,
"COc1cc(OC)c(NC(=S)Nc2ccc(NC(=O)c3ccccc3F)cc2C(F)(F)F)cc1Cl [Example 359, N-{4-[3-(5-Chloro-2,4-dimethoxy-phenyl)-thioureido]-3-trifluoromethyl-phenyl}-2-fluoro-benzamide]",> 10 µg/mL,0.6 µg/mL,59%,> 10 µg/mL,,,
"CC(NC(=S)Nc1ccc(NC(=O)c2ccccc2F)cc1C(F)(F)F)c1ccc(F)cc1 (centres unmarked) [Example 1102, 2-Fluoro-N-(4-{3-[1-(4-fluoro-phenyl)-ethyl]-thioureido}-3-trifluoromethyl-phenyl)-benzamide]",5 µg/mL,,,> 7.5 µg/mL,,,
"C[C@H](NC(=S)Nc1ccc(NC(=O)c2cc3ccccc3cn2)c(C(F)(F)F)c1)c1ccc(Br)cc1 [Example 1103, Isoquinline-3-carboxylic acid (4-{3-[(1S)-1-(4-bromo-phenyl)-ethyl]-thioureido}-2-trifluoromethyl-phenyl)-amide]",5 µg/mL,,,0.12 µg/mL,,,
"C[C@H](NC(=S)Nc1ccc(NC(=O)c2ccccc2F)c(C#N)c1)c1ccc(Br)cc1 [Example 1104, N-(4-{3-[(1S)-1-(4-Bromo-phenyl)-ethyl]-thioureido}-2-cyano-phenyl)-2-fluoro-benzamide]",> 10 µg/mL,,,0.09 µg/mL,,,
"C[C@@H](NC(=S)Nc1ccc(NC(=O)c2ccccc2F)c(C#N)c1)c1ccc(Br)cc1 [Example 1105, N-(4-{3-[(1R)-1-(4-Bromo-phenyl)-ethyl]-thioureido}-2-cyano-phenyl)-2-fluoro-benzamide]",1.1 µg/mL,,,> 7.5 µg/mL,,,
"C[C@H](NC(=O)Nc1ccc(NC(=O)c2ccccc2F)c(C#N)c1)c1ccc(F)cc1 [Example 1106, N-{2-cyano-4-[({[(1S)-1-(4-fluorophenyl)ethyl]amino}carbonyl)amino]phenyl}-2-fluorobenzamide]",> 10 µg/mL,,,0.014 µg/mL,,,
"Cc1cc(NC(=O)c2ccccc2F)ccc1NC(=O)N[C@H](C)c1ccc(F)cc1 [Example 1107, 2-fluoro-N-{4-[({[(1R)-1-(4-fluorophenyl)ethyl]amino}carbonyl)amino]-3-methylphenyl}benzamide]",> 10 µg/mL,,,0.04 µg/mL,,,
"C[C@H](NC(=S)Nc1ccc(NC(=O)c2ccccc2F)c(C#N)c1)c1ccc(F)cc1 [Example 1108, N-{4-[({[(1S)-1-(4-fluorophenyl)ethyl]amino}carbothioyl)amino]-2-cyanophenyl)-2-fluorobenzamide]",> 10 µg/mL,,,0.03 µg/mL,,,
"C[C@H](NC(=S)Nc1ccc(NC(=O)c2ccccc2F)c(C#N)c1)c1ccc(Cl)cc1 [Example 1109, N-{4-[({[(1S)-1-(4-chlorophenyl)ethyl]amino}carbothioyl)amino]-2-cyanophenyl}-2-fluorobenzamide]",> 10 µg/mL,,,0.07 µg/mL,,,
